Measured values as given in patent EP0614887B1, “Indole-sulfonamides as antitumor agents” (ELI LILLY AND COMPANY, priority 1993, dated 1994).

How the values were obtained:
6C3HED lymphosarcoma = experiment: Antitumor activity in mice bearing allograft 6C3HED lymphosarcoma, oral dosing; assay type: in vivo, C3H mice; details: 6C3HED tumor, daily for 8 days; for Percent Inhibition: inhibition of tumor growth vs control; for Toxic/Total: mice which died / total animals in group
From the text: Another tumor model employed C3H mice bearing the widely used allograft 6C3HED lymphosarcoma, also known as the Gardner lymphosarcoma (GLS). The 6C3HED lymphosarcoma was obtained from the Division of Cancer Treatment, National Cancer Institute, Tumor Bank, maintained at E. G. and G. Mason Research (Worcester, Massachusetts).
(§1) First passage tumors were stored in liquid nitrogen, using standard techniques. The transplanted tumor was reestablished from the Tumor Bank every six months or as needed. The tumor was maintained by serial passage twice weekly in the host mice.
(§2) In the procedures utilized here, the tumor was removed from passage animals and minced into cubic fragments having 1 to 3 mm edges using sterile techniques. Tumor pieces were checked for sterility using both Antibiotic Medium 1 and Brain Heart Infusion (Difco, Detroit, Michigan). The xenograft tumor pieces were implanted into the recipient CD1 Nu/Nu mice subcutaneously in an axillary site by trochar. The allograft 6C3HED tumor pieces were implanted into the recipient C3H mice in an analogous fashion.
(§3) Drug therapy on the appropriate schedule was initiated seven days after tumor implantation for the mice bearing the xenograft tumors, one day after implantation for the mice bearing the 6C3HED lymphosarcoma. The compound being tested was mixed with 2.5% Emulphor EL620 from GAF Corporation (1:40 dilution in 0.9% saline). The total dosage volume for each administration was 0.5 ml. All animals were weighed at the beginning and end of administration of the subject compounds. Food and water were provided ad libitum.
(§4) Each control group and each dosage level of the treated groups consisted of 9 or 10 mice selected at random from the pool of implanted animals. The formulations were administered orally by gavage with the use of an 18-gauge needle. Compounds were dosed daily for 10 days for the studies using the human tumor xenografts and 8 days for the studies using the allograft.
(§5) The tumor was measured five days after treatment ended with two dimensional measurements (width and length) of the tumor taken using digital electronic calipers interfaced to a microcomputer. J.F. Worzalla, et al., Investigational New Drugs, 8:241-251 (1990). Tumor weights were calculated from these measurements using the following formula: Tumor weight (mg) =[…] [formula] At least one control group of an equal number of mice was treated with the same volume of 2.5% Emulphor only. The percent inhibition is determined by subtracting the ratio of the mean tumor size of the test group relative to the control group from one and multiplying the result by 100.
(§6) The results of several experiments in mice bearing the VRC5 human colon adenocarcinomas, and the 6C3HED lymphosarcoma when the Formula I compounds were administered orally are provided in Table I. In the table, Column 1 refers to the example number of the compound tested; Column 2 describes the particular human tumor xenograft or mouse allograft being studied; Column 3 gives the dosage level of the compound of Formula I in milligrams per kilogram of body weight; Column 4 describes the percent inhibition of tumor growth; and Column 5 tallies the number of mice which died during the course of the experiment relative to the total number of animals in the group.

[1] = tested on: VRC5 human colon adenocarcinomas; experiment: Antitumor activity in mice bearing human colon xenograft VRC5, oral dosing; assay type: in vivo, CD1 Nu/Nu mice; details: VRC5 tumor, daily for 10 days; for Percent Inhibition: inhibition of tumor growth vs control; for Toxic/Total: mice which died / total animals in group
From the text: One of the tumor models used for showing the anti-neoplastic activity of the sulfonylureas of this invention was the human colon xenograft VRC5. J.A. Houghton and D.M. Taylor, British Journal of Cancer, 37:213-223 (1978). This tumor was obtained from St. Jude's Children's Research Hospital and has been widely used as a human tumor model.
as §1, §2, §3, §4, §5, §6

Molecule	Percent Inhibition (6C3HED lymphosarcoma; 280 mg/kg orally by gavage)	Toxic/Total (6C3HED lymphosarcoma; 280 mg/kg orally)	Percent Inhibition ([1]; 20 mg/kg orally by gavage)	Toxic/Total ([1]; 20 mg/kg orally)	Percent Inhibition ([1]; 40 mg/kg orally by gavage)	Toxic/Total ([1]; 40 mg/kg orally)	Percent Inhibition ([1]; 80 mg/kg orally by gavage)	Toxic/Total ([1]; 80 mg/kg orally)	Percent Inhibition (6C3HED lymphosarcoma; 450 mg/kg orally by gavage)	Toxic/Total (6C3HED lymphosarcoma; 450 mg/kg orally)	Percent Inhibition (6C3HED lymphosarcoma; 900 mg/kg orally by gavage)	Toxic/Total (6C3HED lymphosarcoma; 900 mg/kg orally)
O=C(Nc1ccc(Cl)cc1)NS(=O)(=O)c1ccc2c(c1)CCN2 [Example 1, N-[[(4-chlorophenyl)amino]carbonyl]-2,3-dihydro-1H-indole-5-sulfonamide]	44%	0/9										
N-[[(3,4-dichlorophenyl)amino]carbonyl]-1-methyl-1H-indole-5-sulfonamide [Example 3]			81%	1/9	95%	1/10	100%	0/10				
O=C(Nc1ccc(Cl)c(Cl)c1)NS(=O)(=O)c1ccc2c(c1)CCN2 [Example 2, N-[[(3,4-dichlorophenyl)amino]carbonyl]-2,3-dihydro-1H-indole-5-sulfonamide]			18%	0/9	56%	0/9			100%	0/10	100%	1/10
